Reference: US10485776B2, “Medicament for therapeutic treatment of neuropathic disease” (KEMPHYS LTD., priority 2013, dated 2019)
Several values for one entry are separate records, joined by “and”; a condition that tells them apart may be missing. Equal entries are not always repeated.

What was measured:
[1] = test system: model leg (left) footpad of sciatic nerve-ligated rat; assay: Rat pain test, Seltzer partial sciatic nerve ligation model, von Frey up-and-down method, model leg (left); type: in vivo
[2] = test system: normal leg (right) footpad of rat; assay: Rat pain test, Seltzer model, von Frey up-and-down method, normal leg (right); type: in vivo
[3] = test system: neuropathic pain mouse (L5 and L6 nerve ligation); assay: Suppression of allodynia pain in mouse nerve ligation model, von Frey filament; type: in vivo; conditions: for pain threshold of nerve-ligated group vs medium solvent-applied group: hind leg immersed
Protocol: FIG. 1 is a graph showing results of measurement of analgesic effect obtained by applying an aqueous solution of pregabalin (2.5 mg/ml) to a neuropathic pain mouse. The asterisks (*) indicate the presence of a significant difference with respect to the distilled water-applied group.
FIG. 2 is a graph showing results of measurement of analgesic effect obtained by applying an aqueous solution of pregabalin (7.5 mg/ml) to a neuropathic pain mouse. The asterisks (*) indicate the presence of a significant difference with respect to the distilled water-applied group.
The nerves L5 and L6 of mice (n=6) were ligated with silk threads to prepare pain model. A sham group was prepared as a control (n=6). After 4 weeks, hind legs of the mice were immersed in a 2.5 mg/ml or 7.5 mg/ml aqueous solution of pregabalin (solution prepared by dissolving 75 mg of pregabalin in 10 ml or 30 ml of distilled water) 5 minutes before the measurement until the hair of whole right hind leg was wetted with the solution, and air-dried over 30 minutes after the application. In this state, pain threshold was measured by using a von Frey standard filament, and then pain threshold was measured in the same manner 60 minutes, 90 minutes, and 180 minutes thereafter.

[4] = Serum pregabalin concentration after application to the back of an adult, LC/MS (Example 12); type: in vivo, human; conditions: 150 mg in aqueous solution applied to the back
Protocol: An aqueous solution containing pregabalin (150 mg) was applied to the back of an adult. After the application, blood was collected, and the serum was deproteinized, and then reacted with dinitrobenzenesulfonyl chloride to derivatize pregabalin. Pregabalin was quantified by LC/MS. The pregabalin concentration reached 9 ng/ml 30 minutes after the administration, and this concentration was maintained thereafter over 3 hours or longer.

[5] = model site, 1 mg/site on footpad, individual animals No. 71-78
[6] = model site, 1 mg/site, average of 8 animals
[7] = normal site, 1 mg/site on footpad, individual animals No. 71-78
[8] = normal site, 1 mg/site, average of 8 animals

CC(C)C[C@H](CN)CC(=O)O [Pregabalin]
change of pain threshold values, pain model legs ([1]; 10.0 mg/mL in water with 0.1% Tween 80, 0.10 mL on footpad, after 1 hour): Sufficient increase | pain threshold value, 1 Hour after administration [1, 5]: 8.0 g and 2.0 g and 6.0 g (5×) and 4.0 g | pain threshold value, 3 Hour after administration [1, 5]: 6.0 g (2×) and 2.0 g (2×) and 4.0 g (4×) | pain threshold value, 6 Hour after administration [1, 5]: 4.0 g and 1.0 g (3×) and 2.0 g (4×) | pain threshold value, 1 Hour after administration, Average [1, 6]: 5.5 g | pain threshold value, 3 Hour after administration, Average [1, 6]: 4.0 g | pain threshold value, 6 Hour after administration, Average [1, 6]: 1.9 g | pain threshold value, before administration, Average ([1]; model site, average of 8 animals, baseline before 1 mg/site): 1.6 g | pain threshold value, before administration ([1]; model site, individual animals No. 71-78, baseline before 1 mg/site): 2.0 g (2×) and 1.4 g (6×) | change of pain threshold value, normal leg ([2]; 10.0 mg/mL in water with 0.1% Tween 80, 0.10 mL on footpad): Increase of the threshold value was also observed | pain threshold value, 1 Hour after administration [2, 7]: 10.0 g and 8.0 g and 15.0 g (2×) and 26.0 g (4×) | pain threshold value, 3 Hour after administration [2, 7]: 10.0 g (3×) and 26.0 g (2×) and 15.0 g (3×) | pain threshold value, 6 Hour after administration [2, 7]: 10.0 g (5×) and 8.0 g and 15.0 g (2×) | pain threshold value, 1 Hour after administration, Average [2, 8]: 19.0 g | pain threshold value, 3 Hour after administration, Average [2, 8]: 15.9 g | pain threshold value, 6 Hour after administration, Average [2, 8]: 11.0 g | pain threshold value, before administration, Average ([2]; normal site, average of 8 animals, baseline before 1 mg/site): 10.8 g | pain threshold value, before administration ([2]; normal site, individual animals No. 71-78, baseline before 1 mg/site): 8.0 g (2×) and 10.0 g (4×) and 15.0 g (2×) | pain threshold of nerve-ligated group vs medium solvent-applied group ([3]; 2.5 mg/ml aqueous solution (low dose group), FIG. 1): statistically significant improvement | pain threshold of nerve-ligated group vs medium solvent-applied group ([3]; 7.5 mg/ml aqueous solution (high dose group), FIG. 2): statistically significant improvement | persistence of pain threshold improvement ([3]; both 2.5 and 7.5 mg/ml groups): maintained even after 3 hours | time the serum concentration was maintained ([4]; 9 ng/ml level): ≥ 3 h | concentration at 30 min ([4]; male, human, serum, topical, 30 minutes after the administration): 9 ng/mL
